# Laboratory results: US5958881A, “Composition containing VIP for injection and a method of enhancing visualization of tissues during medical procedures” (priority 1992, dated 1999)
# Read-outs that look alike come from different tables or passages of the source.
# Assays:
# [1] = test system: gastrointestinal motility; conditions: controlled studies; cited from earlier work
# [2] = in vivo; cited from earlier work
# antroduodenal activity = conditions: 1 mg IV followed by 2 mg IV over 2 hours; cited from earlier work
# opossum duodenum = conditions: cited from earlier work
# gastroduodenal motility = conditions: cited from earlier work
# [3] = dose dependent; cited from earlier work
# [4] = Description: During the period of observation, vital signs (blood pressure and pulse) and symptoms were continuously recorded. The protocol was such that if the blood pressure dropped by more than 20 mm Hg systolic or diastolic or the pulse increased by more than 30 beats per minute for 2 minutes, intravenous saline was to be administered and the study terminated.
compound,measurement,setting,value
CN1[C@@H]2CC[C@H]1C[C@@H](OC(=O)C(CO)c1ccccc1)C2 (some centres unmarked) [atropine],improvement in patient tolerance or facilitation of endoscopy,[1],failed to demonstrate any beneficial effects
same,cardiac arrhythmias,[2],increased risk
same,undesirable side effects,[2],"blurred vision, headache, and urinary retention"
glucagon,cycle length and time between contractile activity in the duodenum,antroduodenal activity,significantly increased
same,mean pressure period,antroduodenal activity,decreased
same,effect on duodenum muscle,opossum duodenum,stimulated relaxation
same,gastroduodenal motility,gastroduodenal motility; dose-dependent,variable reduction
same,minimally effective dose,gastroduodenal motility; reduction in gastroduodenal motility,0.5 mg
same,dose at which nausea and vomiting can appear,[3],1 mg
"CC[C@H](C)[C@H](NC(=O)[C@H](CO)NC(=O)[C@H](CC(N)=O)NC(=O)[C@H](CC(C)C)NC(=O)[C@H](Cc1ccc(O)cc1)NC(=O)[C@H](CCCCN)NC(=O)[C@H](CCCCN)NC(=O)[C@@H](NC(=O)[C@H](C)NC(=O)[C@H](CCSC)NC(=O)[C@H](CCC(N)=O)NC(=O)[C@H](CCCCN)NC(=O)[C@H](CCCN=C(N)N)NC(=O)[C@H](CC(C)C)NC(=O)[C@H](CCCN=C(N)N)NC(=O)[C@@H](NC(=O)[C@H](Cc1ccc(O)cc1)NC(=O)[C@H](CC(N)=O)NC(=O)[C@H](CC(=O)O)NC(=O)[C@@H](NC(=O)[C@H](Cc1ccccc1)NC(=O)[C@@H](NC(=O)[C@H](C)NC(=O)[C@H](CC(=O)O)NC(=O)[C@H](CO)NC(=O)[C@@H](N)Cc1c[nH]cn1)C(C)C)[C@@H](C)O)[C@@H](C)O)C(C)C)C(=O)N[C@@H](CC(C)C)C(=O)N[C@@H](CC(N)=O)C(N)=O [VIP, vasoactive intestinal peptide]",need to terminate the study,[4]; criterion: blood pressure drop >20 mm Hg or pulse increase >30 beats per minute for 2 minutes,none of the three patients
same,effects on blood pressure and pulse,"[4]; first patient, higher dose level (20 ng/kg)",not seen
same,effect on blood pressure and pulse,"[4]; first patient, initial dose of 5 ng VIP per kg",slight decrease in systolic pressure and increase in pulse
same,effect on blood pressure,[4]; gastroparetic dose,without a significant effect
same,side effects of nausea and vomiting,[4]; method of the invention,free of the negative side effects of nausea and vomiting
same,change in blood pressure or pulse,"[4]; second patient, any of the dosages tested (5, 20, 100 ng/kg)",no significant change
same,change in blood pressure or pulse,"[4]; third patient, any dose of VIP administered",no significant change
same,adverse reactions such as nausea or vomiting,"[4]; three patients, 5-300 ng/kg IV",None of the three patients
